Structures are written as SMILES.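 How tested: cells in 96-well plates exposed to compound for 48 hours at five concentrations. GI50: concentration for 50% inhibition of growth. TGI denotes the concentration required for complete inhibition of growth.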

Test in all cases: NCI anticancer screen, dose series, 48 h
For assay [1], the system named is SK-MEL-2 melanoma.
Assay [2] has as its system OVCAR-8 ovarian.
The subject of assay [3] is HCT-15 colon.
Assay [4] concerns NCI/ADR-RES ovarian.
The subject of assay [5] is T-47D breast.
In assay [6] the test system is RXF 393 renal.
The subject of assay [7] is UACC-257 melanoma.
In assay [8] the test system is SW-620 colon.
The subject of assay [9] is RPMI-8226 leukemia.
The subject of assay [10] is K-562 leukemia.

As to `NCCCNc1nc2ccccc2c2c(=O)c3cc(F)cc(F)c3sc12`, the GI50 in assay [1] is 2670 nM; in [2] it was 2100 nM; in [3] it was 1600 nM; in assay [4], 1810 nM; in [5] it was 16200 nM; in [6], 1420 nM. The GI50 was 1880 nM in assay [7] and 1640 nM in assay [8]. Besides, the TGI was found to be 7040 nM in assay [1]; 5140 nM in [2]; 3140 nM in assay [3]; 3690 nM in assay [4]; 55400 nM in [5]; 2970 nM in assay [6]. For the same compound, the TGI in assay [7] turned out to be 4180 nM; in [8] it was 3190 nM.
As for `COC1=CC(c2ccc[nH]2)=N/C1=C\c1[nH]c(C)c(CC(=O)OCc2ccccc2)c1CCC(=O)OCc1ccccc1`, the GI50 was 281 nM in assay [1]; 320 nM in assay [2]; 313 nM in assay [3]; 579 nM in assay [4]; 256 nM in assay [5]; 423 nM in assay [6]. Moreover, the GI50 in [7] is 721 nM; in assay [9], 234 nM; in [8], 345 nM. Moreover, the TGI in assay [1] came to 758 nM; in assay [2], 1360 nM; in assay [3], 1180 nM; in [4], 3370 nM; in assay [5] it was 922 nM; in [6] it was 2190 nM. The TGI in [7] is 3100 nM; in [9], 760 nM; in [8], 2430 nM.
Regarding `COc1ccc2sc3cccc(NCCN(C)C)c3c(=O)c2c1`, the GI50 in assay [2] was 3300 nM; in assay [3], 2240 nM; in [4] it was 2980 nM; in [5], 2760 nM; in [6] it was 2670 nM; in assay [10], 2370 nM. The GI50 was 1780 nM in assay [7], 2220 nM in assay [9] and 2070 nM in [8]. In addition, the TGI stood at 12500 nM in assay [2]; 6650 nM in assay [3]; 11300 nM in [4]; 9780 nM in [5]; 9760 nM in assay [6]; 5200 nM in [10]. The TGI turned out to be 3320 nM in assay [7], 5160 nM in [9] and 5570 nM in assay [8].
For `O=C(COc1ccc(/C=C2\COc3ccccc3C2=O)cc1)Nc1nccs1`, the GI50 in assay [1] is 10800 nM; in assay [2], 4490 nM; in assay [3] it was 5050 nM; in assay [4] it was 24700 nM; in assay [5] it was 16100 nM; in assay [10] it was 1600 nM. In addition, the GI50 is 13300 nM in assay [7], 2250 nM in assay [9] and 3220 nM in assay [8]. Also, the TGI in [1] is 24000 nM; in assay [2], 45200 nM; in [3], 23800 nM; in [4] it was greater than 100000 nM; in assay [5], 38800 nM; in assay [10], 4640 nM. Besides, the TGI in [7] was found to be 30600 nM; in assay [9] it was 6280 nM; in assay [8], 10200 nM.
Regarding `CC[C@@H]1[C@@H](C)O[C@@](O)([C@@H](C)[C@H](O)[C@H](C)[C@H]2OC(=O)/C=C/C=C/[C@H](C)[C@@H]([C@@H](C)[C@@H](O)[C@H](C)[C@@]3(O)C[C@@H](O[C@H]4C[C@@H](O)[C@H](O)C(C)O4)[C@H](CC)[C@@H](C)O3)OC(=O)/C=C/C=C/[C@@H]2C)C[C@H]1O[C@@H]1C[C@@H](O)[C@H](O)C(C)O1` (some centres undefined), the GI50 in assay [1] is 80.8 nM; in assay [2] it was 138 nM; in [3], 459 nM; in assay [4], 1050 nM; in [5], 94.9 nM; in assay [6], 52.1 nM. Further, the GI50 in [10] was 116 nM; in [9], 64.3 nM; in [8], 108 nM. The TGI was determined as 197 nM in assay [1]; 557 nM in assay [2]; 924 nM in assay [3]; 7040 nM in [4]; 340 nM in assay [5]; 119 nM in assay [6]. For the same compound, the TGI in [10] turned out to be 378 nM; in assay [9], 153 nM; in assay [8] it was 454 nM.
For the compound `O=C1/C(=C\c2ccc(F)cc2)CN(C(=O)c2ccccc2)C/C1=C\c1ccc(F)cc1`, the GI50 in [1] is 4440 nM; in [2], 2820 nM; in [3] it was 1500 nM; in assay [4] it was 4140 nM; in [5], 6220 nM; in [6] it was 1990 nM. Also, the results for the GI50 in assay [10], in [7] and in assay [9] were 983 nM, 2410 nM and 296 nM, respectively. The TGI is 19500 nM in assay [1]; 17500 nM in assay [2]; 3530 nM in assay [3]; greater than 100000 nM in [4]; 71400 nM in [5]; 4850 nM in assay [6]. Further, the TGI in assay [10] was greater than 100000 nM; in [7], 8520 nM; in assay [9] it was 1170 nM.
As for `C[C@]12CCc3nc(Nc4cccc(O)c4)sc3C1=CC[C@@H]1[C@@H]2CC[C@]2(C)/C(=N\NC(N)=S)CC[C@@H]12`, the GI50 in assay [1] is 2320 nM; in [2] it was 2570 nM; in assay [3] it was 1150 nM; in [4] it was 3070 nM; in [5], 1830 nM; in assay [6], 574 nM. Further, the results for the GI50 in assay [10], in assay [7] and in assay [8] were 2150 nM, 2120 nM and 1910 nM, respectively. For the same compound, the TGI in [1] is 7360 nM; in assay [2], 10900 nM; in [3], 2640 nM; in assay [4], greater than 100000 nM; in assay [5], 4410 nM; in assay [6] it was 2190 nM. In addition, the results for the TGI in assay [10], in assay [7] and in assay [8] were greater than 100000 nM, 6400 nM and 3800 nM, respectively.

For the origin of these results see PubChem BioAssay (NCI).
